target: T1, KRAS G12C 1-169, his-tagged protein, GDP-loaded (Homo sapiens, UniProt P01116, G12C); assay: Biochemical assay: covalent binding to KRAS G12C analyzed by mass spectrometry; conditions: compounds 48-246, measured at 2 h; further: test concentration or dose not given here
T1 construct: KRAS G12C 1-169, his-tagged protein, GDP-loaded
T1 sequence (P01116 1-169 isoform P01116-2 G12C): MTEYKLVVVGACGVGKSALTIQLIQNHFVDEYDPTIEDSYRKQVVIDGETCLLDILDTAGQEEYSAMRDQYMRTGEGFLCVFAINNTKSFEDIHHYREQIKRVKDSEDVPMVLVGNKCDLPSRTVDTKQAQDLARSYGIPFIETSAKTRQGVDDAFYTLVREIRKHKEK

Row | SMILES | Binding %
1 | C=CC(=O)N1CCN(c2ncnc3cc(-c4ccccc4C(N)=O)c(C(F)(F)F)cc23)CC1 [Compound I-211, 2-(4-(4-acryloylpiperazin-1-yl)-6-(trifluoromethyl)quinazolin-7-yl)benzamide] | + (+indicates binding activity from 5% to 25%)
2 | C=CC(=O)N1CCN(c2ncnc3cc(-c4ccccc4C(F)(F)F)c(C(F)(F)F)cc23)CC1 [Compound I-212, 1-(4-(6-(trifluoromethyl)-7-(2-(trifluoromethyl)phenyl)quinazolin-4-yl)piperazin-1-yl)prop-2-en-1-one] | ++++ (++++indicates binding activity greater than 75%)
3 | C=CC(=O)N1CCN(c2ncnc3cc(-c4ccccc4S(N)(=O)=O)c(Cl)cc23)CC1 [Compound I-213, 2-(4-(4-acryloylpiperaqzin-1-yl)-6-chloroquinazolin-7-yl)benzenesulfonamide] | ++ (++indicates binding activity greater than 25% and up to 50%)
4 | C=CC(=O)N1CCN(c2ncnc3cc(-c4ccnc5ccccc45)c(Cl)cc23)CC1 [Compound I-214, 1-(4-(6-chloro-7-(quinolin-4-yl)quinazolin-4-yl)piperazin-1-yl)prop-2-en-1-one] | + (+indicates binding activity from 5% to 25%)
5 | C=CC(=O)N1CCN(c2ncnc3cc(-c4c(F)ccc(F)c4O)c(Cl)cc23)CC1 [Compound I-216, 1-(4-(6-chloro-7-(3,6-difluoro-2-hydroxyphenyl)quinazolin-4-yl)piperazin-1-yl)prop-2-en-1-one] | + (+indicates binding activity from 5% to 25%)
6 | C=CC(=O)N1CCN(c2ncnc3c(F)c(-c4cc(O)ccc4Cl)c(Cl)cc23)CC1 [Compound I-217, 1-(4-(6-chloro-7-(2-chloro-5-hydroxyphenyl)-8-fluoroquinazolin-4-yl)piperazin-1-yl)prop-2-en-1-one] | +++ (+++indicates binding activity greater than 50% and up to 75%)
7 | C=CC(=O)N1CCN(c2ncnc3cc(-c4c(O)ccc5ccccc45)c(C(F)(F)F)cc23)CC1 [Compound I-218, 1-(4-(7-(2-hydroxynaphthalen-1-yl)-6-(trifluoromethyl)quinazolin-4-yl)piperazin-1-yl)prop-2-en-1-one] | +++ (+++indicates binding activity greater than 50% and up to 75%)
8 | CN(C)C/C=C/C(=O)N1CCN(c2ncnc3cc(-c4ccc(F)cc4F)c(Cl)cc23)CC1 [Compound I-219, (E)-1-(4-(6-chloro-7-(2,4-difluorophenyl)quinazolin-4-yl)piperazin-1-yl)-4-(dimethylamino)but-2-en-1-one] | + (+indicates binding activity from 5% to 25%)
9 | C=CC(=O)N1CCN(c2c(C#N)cnc3cc(-c4c(O)cccc4F)c(Cl)cc23)CC1 [Compound I-220, 4-(4-acryloylpiperazin-- yl)-6-chloro-7-(2-fluoro-6-hydroxyphenyl)quinoline-3-carbonitrile] | +++ (+++indicates binding activity greater than 50% and up to 75%)
10 | C=CC(=O)N1CCN(c2cnnc3cc(-c4ccc(F)cc4F)c(Cl)cc23)CC1 [Compound I-221, 1-(4-(6-chloro-7-(2,4-difluorophenyl)cinnolin-4-yl)piperazin-1-yl)prop-2-en-1-one] | ++ (++indicates binding activity greater than 25% and up to 50%)
11 | C=CC(=O)N1CCN(c2ncnc3cc(-c4ccccc4C4(C)CC4)c(Cl)cc23)CC1 [Compound I-222, 1-(4-(6-chloro-7-(2-(1-methylcyclopropyl)phenyl)quinazolin-4-yl)piperazin-1-yl)prop-2-en-1-one] | +++ (+++indicates binding activity greater than 50% and up to 75%)
12 | C=CC(=O)N1CCN(c2ncnc3cc(-c4cccc5c4CCCN5)c(Cl)cc23)CC1 [Compound I-223, 1-(4-(6-chloro-7-(1,2,3,4-tetrahydroquinolin-5-yl)quinazolin-4-yl)piperazin-1-yl)prop-2-en-1-one] | + (+indicates binding activity from 5% to 25%)
13 | C=CC(=O)N1CCN(c2ncnc3c(F)c(-c4ccc(F)cc4F)c(Cl)cc23)CC1 [Compound I-224, 1-(4-(6-chloro-7-(2,4-difluorophenyl)-8-fluoroquinazolin-4-yl)piperazin-1-yl)prop-2-en-1-one] | +++ (+++indicates binding activity greater than 50% and up to 75%)
14 | C=CC(=O)N1CCN(c2cnnc3cc(-c4ccccc4C(F)(F)F)c(Cl)cc23)CC1 [Compound I-225, 1-(4-(6-chloro-7-(2-(trifluoromethyl)phenyl)cinnolin-4-yl)piperazin-1-yl)prop-2-en-1-one] | ++ (++indicates binding activity greater than 25% and up to 50%)
15 | C=CC(=O)N1CCN(c2ncnc3cc(-c4nn(C)c5ccccc45)c(Cl)cc23)CC1 [Compound I-226, 1-(4-(6-chloro-7-(1-methyl-1H-indazol-3-yl)quinazolin-4-yl)piperazin-1-yl)prop-2-en-1-one] | + (+indicates binding activity from 5% to 25%)
16 | C=CC(=O)N1CCN(c2ncnc3c(F)c(-c4c(O)cccc4F)c(Cl)cc23)CC1 [Compound I-227, 1-(4-(6-chloro-8-fluoro-7-(2-fluoro-6-hydroxyphenyl)quinazolin-4-yl)piperazin-1-yl)prop-2-en-1-one] | ++++ (++++indicates binding activity greater than 75%)
17 | CN(C)C/C=C/C(=O)N1CCN(c2ncnc3cc(-c4ccccc4F)c(Cl)cc23)CC1 [Compound I-228, (E)0-1-(4-(6-chloro-7-(2-fluorophenyl)quinazolin-4-yl)piperazin-1-yl)-4-(dimethylamino)but-2-en-1-one] | + (+indicates binding activity from 5% to 25%)
18 | CN(C)C/C=C/C(=O)N1CCN(c2ncnc3c(F)c(-c4ccccc4F)c(Cl)cc23)CC1 [Compound I-229, (E)-1-(4-(6-chloro-8-fluoro-7-(2-fluorophenyl)quinazolin-4-yl)piperazin-1-yl)-4-(dimethylamino)but-2-en-1-one] | ++ (++indicates binding activity greater than 25% and up to 50%)
19 | CN(C)C/C=C/C(=O)N1CCN(c2ncnc3c(F)c(-c4ccccc4F)c(-c4ccccc4F)cc23)CC1 [Compound I-230, (E)-4-(dimethylamino)-1-(4-(8-fluoro-6,7-bis(2-fluorophenyl)quinazolin-4-yl)piperazin-1-yl)but-2-en-1-one] | + (+indicates binding activity from 5% to 25%)
20 | C=CC(=O)N1CCN(c2cnnc3cc(-c4c(O)cccc4F)c(Cl)cc23)CC1 [Compound I-231, 1-(4-(6-chloro-7-(2-fluoro-6-hydroxyphenyl)ciinolin-4-yl)piperazin-1-yl)prop-2-en-1-one] | +++ (+++indicates binding activity greater than 50% and up to 75%)
21 | C=CC(=O)N1CCN(c2ncnc3cc(-c4c(F)cccc4C(N)=O)c(Cl)cc23)CC1 [Compound I-232, 2-(4-(4-acryloylpiperazin-1-yl)-6-chloroquinazolin-7-yl)-3-fluorobenzamide] | + (+indicates binding activity from 5% to 25%)
22 | C=CC(=O)N1CCN(c2ncnc3cc(-c4c(O)cccc4C(F)(F)F)c(Cl)cc23)CC1 [Compound I-233, 1-(4-(6-chloro-7-(2-hydroxy-6-(trifluoromethyl)phenyl)quinazolin-4-yl)piperazin-1-yl)prop-2-en-1-one] | +++ (+++indicates binding activity greater than 50% and up to 75%)

From patent US10111874B2, “Combination therapies for treatment of cancer” (Araxes Pharma LLC, priority 2014, dated 2018)
